Reference: patent publication US20240368150A1 (Hoffmann-La Roche Inc., priority 2021, published 2024)
Like-named read-outs stand apart in the source and are kept apart here.

Assays:
[1] = tested on: primary human T-cells
[2] = tested on: primary human T-cells; experiment: Proliferation assay after 5 days (CellTiter-Glo, CD3 stimulation; PBS counter screen); type: cell-based; settings: T-cell, 120 h, CD3 stimulation; for Emax: 5 days, normalized to reference compound A1 as stimulator control = 100%, DMSO neutral control, read-out: Emax proliferation (% activation); for EC50: primary human T-cells, CellTiter-Glo after 5 days, EC50 of fitted sigmoidal curve, read-out: Tcell Proliferation CD3 EC50
Outline: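 Primary human T-cells, with or without CD3 stimulation, exposed to compounds for 5 days; cell number read as ATP by CellTiter-Glo 2.0 luminescence after 45 min equilibration and 15 min reagent incubation at room temperature. Compounds activating unstimulated cells or reducing viability were flagged.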

EC50 [1] | Structure (SMILES) | Emax ([2]; Homo sapiens) | EC50 ([2]; Homo sapiens) | EC50 [2]
8130 nM | N[C@H]1CS(=O)(=O)c2cc(F)c(-c3nnc(N4CCC(F)(F)C(CO)C4)o3)cc2N(Cc2ccc(Cl)cc2)C1=O (stereo partly drawn) [Example 485, (3R)-3-amino-5-[(4-chlorophenyl)methyl]-7-[5-[4,4-difluoro-3-(hydroxymethyl)-1-piperidyl]-1,3,4-oxadiazol-2-yl]-8-fluoro-1,1-dioxo-2,3-dihydro-1λ^6,5-benzothiazepin-4-one] | 98% | 868 nM | –
6690 nM | CC(C)(C#N)Nc1nnc(-c2cc3c(cc2F)S(=O)(=O)C[C@H](N)C(=O)N3Cc2ccc(Cl)cc2)o1 [Example 486, 2-methyl-2-[[5-[(3R)-3-amino-5-[(4-chlorophenyl)methyl]-8-fluoro-1,1,4-trioxo-2,3-dihydro-1λ^6,5-benzothiazepin-7-yl]-1,3,4-oxadiazol-2-yl]amino]propanenitrile] | 106% | 2680 nM | –
8600 nM | N[C@H]1CS(=O)(=O)c2cc(F)c(-c3nnc(NCC(F)(F)F)o3)cc2N(Cc2ccc(Cl)cc2)C1=O [Example 487, (3R)-3-amino-5-[(4-chlorophenyl)methyl]-8-fluoro-1,1-dioxo-7-[5-(2,2,2-trifluoroethylamino)-1,3,4-oxadiazol-2-yl]-2,3-dihydro-1λ^6,5-benzothiazepin-4-one] | 112% | 1190 nM | –
4060 nM | N[C@H]1CS(=O)(=O)c2cc(F)c(-c3nnc(NC4CNCC(F)(F)C4)o3)cc2N(Cc2ccc(Cl)cc2)C1=O (stereo partly drawn) [Example 489, (3R)-3-amino-5-[(4-chlorophenyl)methyl]-7-[5-[(5,5-difluoro-3-piperidyl)amino]-1,3,4-oxadiazol-2-yl]-8-fluoro-1,1-dioxo-2,3-dihydro-1λ^6,5-benzothiazepin-4-one] | 55% | 7240 nM | –
3760 nM | COC(=O)N1CC(Nc2nnc(-c3cc4c(cc3F)S(=O)(=O)C[C@H](N)C(=O)N4Cc3ccc(Cl)cc3)o2)CC(F)(F)C1 (stereo partly drawn) [Example 490, methyl 3,3-difluoro-5-[[5-[(3R)-3-amino-5-[(4-chlorophenyl)methyl]-8-fluoro-1,1,4-trioxo-2,3-dihydro-1λ^6,5-benzothiazepin-7-yl]-1,3,4-oxadiazol-2-yl]amino]piperidine-1-carboxylate] | 72% | 6050 nM | –
443 nM | CC1(C)COCCN1c1nnc(-c2cc3c(cc2F)S(=O)(=O)C[C@H](N)C(=O)N3Cc2ccc(Cl)cc2)o1 [Example 491, (3R)-3-amino-5-[(4-chlorophenyl)methyl]-7-[5-(3,3-dimethylmorpholin-4-yl)-1,3,4-oxadiazol-2-yl]-8-fluoro-1,1-dioxo-2,3-dihydro-1λ^6,5-benzothiazepin-4-one] | 56% | 142 nM | –
638 nM | N[C@H]1CS(=O)(=O)c2cc(F)c(-c3nnc(NC4CCCN(CC(F)(F)F)C4)o3)cc2N(Cc2ccc(Cl)cc2)C1=O (stereo partly drawn) [Example 492, (3R)-3-amino-5-[(4-chlorophenyl)methyl]-8-fluoro-1,1-dioxo-7-[5-[[1-(2,2,2-trifluoroethyl)-3-piperidyl]amino]-1,3,4-oxadiazol-2-yl]-2,3-dihydro-1λ^6,5-benzothiazepin-4-one] | 88% | 671 nM | –
1280 nM | CC(Nc1nnc(-c2cc3c(cc2F)S(=O)(=O)C[C@H](N)C(=O)N3Cc2ccc(Cl)cc2)o1)C1CC(F)(F)C1 (stereo partly drawn) [Example 493, (3R)-3-amino-5-[(4-chlorophenyl)methyl]-7-[5-[1-(3,3-difluorocyclobutyl)ethylamino]-1,3,4-oxadiazol-2-yl]-8-fluoro-1,1-dioxo-2,3-dihydro-1λ^6,5-benzothiazepin-4-one] | 102% | 982 nM | –
1200 nM | CC(C)(CC(F)(F)F)Nc1nnc(-c2cc3c(cc2F)S(=O)(=O)C[C@H](N)C(=O)N3Cc2ccc(Cl)cc2)o1 [Example 494, (3R)-3-amino-5-[(4-chlorophenyl)methyl]-8-fluoro-1,1-dioxo-7-[5-[(3,3,3-trifluoro-1,1-dimethyl-propyl)amino]-1,3,4-oxadiazol-2-yl]-2,3-dihydro-1λ^6.5-benzothiazepin-4-one] | 118% | 464 nM | –
1720 nM | C#CC1(Nc2nnc(-c3cc4c(cc3F)S(=O)(=O)C[C@H](N)C(=O)N4Cc3ccc(Cl)cc3)o2)CCCCC1 [Example 497, (3R)-3-amino-5-[(4-chlorophenyl)methyl]-7-[5-[(1-ethynylcyclohexyl)amino]-1,3,4-oxadiazol-2-yl]-8-fluoro-1,1-dioxo-2,3-dihydro-1λ^6,5-benzothiazepin-4-one] | 125% | 874 nM | –
2230 nM | N[C@H]1CS(=O)(=O)c2cc(F)c(-c3nnc(NC45CC(F)(C4)C5)o3)cc2N(Cc2ccc(Cl)cc2)C1=O [Example 499, (3R)-3-amino-5-[(4-chlorophenyl)methyl]-8-fluoro-7-[5-[(3-fluoro-1-bicyclo[1.1.1]pentanyl)amino]-1,3,4-oxadiazol-2-yl]-1,1-dioxo-2,3-dihydro-1λ^6,5-benzothiazepin-4-one] | 68% | 768 nM | –
911 nM | N[C@H]1CS(=O)(=O)c2cc(F)c(-c3nnc(NC45CC(Cl)(C4)C5)o3)cc2N(Cc2ccc(Cl)cc2)C1=O [Example 500, (3R)-3-amino-7-[5-[(3-chloro-1-bicyclo[1.1.1]pentanyl)amino]-1,3,4-oxadiazol-2-yl]-5-[(4-chlorophenyl)methyl]-8-fluoro-1,1-dioxo-2,3-dihydro-1λ^6.5-benzothiazepin-4-one] | 97% | 1230 nM | –
3120 nM | N[C@H]1CS(=O)(=O)c2cc(F)c(-c3nnc(NC45CC(C4)C5)o3)cc2N(Cc2ccc(Cl)cc2)C1=O [Example 501, (3R)-3-amino-7-[5-(1-bicyclo[1.1.1]pentanylamino)-1,3,4-oxadiazol-2-yl]-5-[(4-chlorophenyl)methyl]-8-fluoro-1,1-dioxo-2,3-dihydro-1λ^6.5-benzothiazepin-4-one] | 92% | 473 nM | –
> 10000 nM | CC(F)(F)CNc1nnc(-c2cc3c(cc2F)S(=O)(=O)C[C@H](N)C(=O)N3Cc2ccc(Cl)cc2)o1 [Example 502, (3R)-3-amino-5-[(4-chlorophenyl)methyl]-7-[5-(2,2-difluoropropylamino)-1,3,4-oxadiazol-2-yl]-8-fluoro-1,1-dioxo-2,3-dihydro-1λ^6,5-benzothiazepin-4-one] | 72% | 4460 nM | –
3090 nM | C[C@@H](COC(F)(F)F)Nc1nnc(-c2cc3c(cc2F)S(=O)(=O)C[C@H](N)C(=O)N3Cc2ccc(Cl)cc2)o1 [Example 503, (3R)-3-amino-5-[(4-chlorophenyl)methyl]-8-fluoro-1,1-dioxo-7-[5-[[(1S)-1-methyl-2-(trifluoromethoxy)ethyl]amino]-1,3,4-oxadiazol-2-yl]-2,3-dihydro-1λ^6,5-benzothiazepin-4-one] | 135% | 371 nM | –
1230 nM | N[C@H]1CS(=O)(=O)c2cc(F)c(-c3nnc(NC4CC(C(F)(F)F)C4)o3)cc2N(Cc2ccc(Cl)cc2)C1=O (stereo partly drawn) [Example 504, (3R)-3-amino-5-[(4-chlorophenyl)methyl]-8-fluoro-1,1-dioxo-7-[5-[[3-(trifluoromethyl)cyclobutyl]amino]-1,3,4-oxadiazol-2-yl]-2,3-dihydro-1λ^6,5-benzothiazepin-4-one] | 103% | 1110 nM | –
191 nM | N[C@H]1CS(=O)(=O)c2cc(F)c(-c3nnc(N4CC5(CCCO5)C4)o3)cc2N(Cc2ccc(Cl)cc2)C1=O [Example 505, (3R)-3-amino-5-[(4-chlorophenyl)methyl]-8-fluoro-7-[5-(5-oxa-2-azaspiro[3.4]octan-2-yl)-1,3,4-oxadiazol-2-yl]-1,1-dioxo-2,3-dihydro-1λ^6,5-benzothiazepin-4-one] | 94% | 182 nM | –
1320 nM | CC(CC(F)(F)F)Nc1nnc(-c2cc3c(cc2F)S(=O)(=O)C[C@H](N)C(=O)N3Cc2ccc(Cl)cc2)o1 (stereo partly drawn) [Example 506, (3R)-3-amino-5-[(4-chlorophenyl)methyl]-8-fluoro-1,1-dioxo-7-[5-[(3,3,3-trifluoro-1-methyl-propyl)amino]-1,3,4-oxadiazol-2-yl]-2,3-dihydro-1λ^6.5-benzothiazepin-4-one] | 88% | 243 nM | –
8040 nM | CC1CN(Cc2nnc(-c3cc4c(cc3F)SC[C@H](N)C(=O)N4Cc3ccc(Cl)cc3)o2)C1 [Example 507, (3R)-3-amino-5-[(4-chlorophenyl)methyl]-8-fluoro-7-[5-[(3-methylazetidin-1-yl)methyl]-1,3,4-oxadiazol-2-yl]-2,3-dihydro-1,5-benzothiazepin-4-one] | 74% | 2230 nM | –
459 nM | CC(C)(C)c1nnc(-c2cc3c(cc2F)S(=O)(=O)C[C@H](N)C(=O)N3Cc2ccc(Cl)cc2)s1 [Example 508, (3R)-3-amino-7-(5-tert-butyl-1,3,4-thiadiazol-2-yl)-5-[(4-chlorophenyl)methyl]-8-fluoro-1,1-dioxo-2,3-dihydro-1λ^6,5-benzothiazepin-4-one] | 110% | 396 nM | –

Structure (SMILES) | EC50 [1] | Emax ([2]; Homo sapiens) | EC50 ([2]; Homo sapiens) | EC50 [2]
CC(Nc1nnc(-c2cc3c(cc2F)S(=O)(=O)C[C@H](N)C(=O)N3Cc2ccc(Cl)cc2)o1)C(F)(F)F (stereo partly drawn) [Example 498, (3R)-3-amino-5-[(4-chlorophenyl)methyl]-8-fluoro-1,1-dioxo-7-[5-[(2,2,2-trifluoro-1-methyl-ethyl)amino]-1,3,4-oxadiazol-2-yl]-2,3-dihydro-1λ^6,5-benzothiazepin-4-one] | 724 nM | 103% | – | 1080 nM
